Test results as given in US10076504B2, “Glucagon antagonists” (Ligand Pharmaceuticals, Inc., priority 2014, dated 2018).

Columns and labels:
[1] = Liver microsome incubation, statement for all species; assay type: in vitro ADME; conditions: predicted clearance well below hepatic blood flow
Procedure: (§1) The compound of Formula IIIa (below) was incubated for 60 minutes at 37 C with mouse, rat, dog, monkey, and human liver microsomes.
(§2) Concentrations of IIIa were measured at multiple time points by LC-MS/MS. IIIa was stable with predicted clearance well below hepatic blood flow in all species.

[2] = Liver microsome incubation; assay type: in vitro ADME, dog
Procedure: as §1, §2

[3] = Excretion experiments in rats; assay type: in vivo, rat
Procedure: Pharmacokinetics of IIIa were evaluated after both oral and IV administration in mice, rats, dogs, and monkeys.

[4] = Liver microsome incubation; assay type: in vitro ADME, monkey
Procedure: as §1, §2

[5] = Liver microsome incubation; assay type: in vitro ADME, rat
Procedure: as §1, §2

[6] = Single ascending dose study, safety and tolerability; assay type: in vivo, human; conditions: for Any study drug related TEAE / Gastrointestinal disorders Diarrhoea / Gastrointestinal disorders Nausea / Gastrointestinal disorders Vomiting / Nervous systems disorders Headache: Normal Healthy Volunteers, 6 subjects; for tolerability: single oral doses 2 to 480 mg in NHV, 40 mg in T2DM subjects
Procedure: Oral doses of IIIa were administered to normal healthy volunteers (NHV) and subjects with type 2 diabetes mellitus (T2DM). A single center, randomized, double-blind, placebo-controlled single ascending dose study was done in both NHV (n=48) and T2DM subjects (n=8). Dose escalation only occurred after review of safety and tolerability data from previous dose levels (n=8/cohort; 2-placebo & 6-IIIa). Dosing of the T2DM cohort was initiated only after the equivalent dose had been administered to NHV and safety data had been reviewed. All subjects were administered IIIa in the morning after an overnight fast with the exception of the NHV in the 40 mg cohort. NHV subjects in the 40 mg cohort initially received IIIa in a fasted state. Following a 3 week washout period, IIIa was readministered after breakfast at 40 mg to determine the effects of food consumption on pharmacokinetics.
This was a single center, randomized, double-blind, placebo-controlled single ascending dose study in both normal healthy volunteers (NHV) (n=48) and subjects with type 2 diabetes mellitus (T2DM) (n=8). All subjects were administered Formula IIIa as a solution formulated with Captisol® after an overnight fast with the exception of the NHV in the 40 mg cohort. The NHV 40 mg cohort initially received Formula IIIa in a fasted state. Following a washout period, subjects received 40 mg Formula IIIa after breakfast to explore the effects of food consumption on pharmacokinetics.
In type 2 diabetes mellitus (T2DM), inappropriately elevated levels of glucagon exacerbate hyperglycemia and its associated complications. Not wishing to be bound to a particular theory, it has been observed that antagonism of glucagon action reduces blood glucose levels and hemoglobin A1c in patients with T2DM. The novel, selective, orally bioavailable glucagon receptor antagonist, Formula IIIa (below), was investigated regarding its pharmacokinetics (PK), safety, and pharmacodynamics (PD) in a first-in-human, ascending, single-dose, double blind, placebo-controlled study in normal healthy (NH) and T2DM subjects (NCT01919684).

[7] = Liver microsome incubation; assay type: in vitro ADME, mouse
Procedure: as §1, §2

[8] = NHV and T2DM subjects, single dose

Cc1cc(C)c(-c2ccc(NC(=O)[C@H](Cc3ccc(C(=O)NCCS(=O)(=O)O)cc3)c3ccc(-c4ccc(C(C)(C)C)cc4)cc3)cc2)c(C)c1 [IIIa]
stability in liver microsomes [1]: stable | 1st-order kinetic rate constant ([2]; Dog liver microsomes, 60 minutes at 37 C): 0.0016 min⁻¹ | Predicted systemic clearance ([2]; Dog, from liver microsomes): 4.01 mL/min/kg body weight | levels detected in the urine [3]: negligible | route of excretion [3]: primarily excreted in the bile | 1st-order kinetic rate constant ([4]; Monkey liver microsomes, 60 minutes at 37 C): 0.0057 min⁻¹ | Predicted systemic clearance ([4]; Monkey, from liver microsomes): 11.9 mL/min/kg body weight | 1st-order kinetic rate constant ([5]; Rat liver microsomes, 60 minutes at 37 C): 0.0058 min⁻¹ | Predicted systemic clearance ([5]; Rat, from liver microsomes): 13.8 mL/min/kg body weight | cases of hypoglycemia (glucose <60 mg/dL) [6, 8]: no cases of hypoglycemia | serious adverse events [6, 8]: no serious adverse events | Any study drug related TEAE ([6]; 2 mg): 0 (0.0) | Gastrointestinal disorders Diarrhoea ([6]; 2 mg): 0 (0.0) | Gastrointestinal disorders Nausea ([6]; 2 mg): 0 (0.0) | Gastrointestinal disorders Vomiting ([6]; 2 mg): 0 (0.0) | Nervous systems disorders Headache ([6]; 2 mg): 0 (0.0) | Any study drug related TEAE ([6]; 10 mg): 1 (16.7) | Gastrointestinal disorders Diarrhoea ([6]; 10 mg): 0 (0.0) | Gastrointestinal disorders Nausea ([6]; 10 mg): 0 (0.0) | Gastrointestinal disorders Vomiting ([6]; 10 mg): 0 (0.0) | Nervous systems disorders Headache ([6]; 10 mg): 1 (16.7) | Any study drug related TEAE ([6]; 40 mg): 0 (0.0) | Gastrointestinal disorders Diarrhoea ([6]; 40 mg): 0 (0.0) | Gastrointestinal disorders Nausea ([6]; 40 mg): 0 (0.0) | Gastrointestinal disorders Vomiting ([6]; 40 mg): 0 (0.0) | Nervous systems disorders Headache ([6]; 40 mg): 0 (0.0) | Any study drug related TEAE ([6]; 120 mg): 2 (33.3) | Gastrointestinal disorders Diarrhoea ([6]; 120 mg): 0 (0.0) | Gastrointestinal disorders Nausea ([6]; 120 mg): 0 (0.0) | Gastrointestinal disorders Vomiting ([6]; 120 mg): 0 (0.0) | Nervous systems disorders Headache ([6]; 120 mg): 2 (33.3) | Any study drug related TEAE ([6]; 240 mg): 2 (33.3) | Gastrointestinal disorders Diarrhoea ([6]; 240 mg): 0 (0.0) | Gastrointestinal disorders Nausea ([6]; 240 mg): 1 (16.7) | Gastrointestinal disorders Vomiting ([6]; 240 mg): 0 (0.0) | Nervous systems disorders Headache ([6]; 240 mg): 1 (16.7) | Any study drug related TEAE ([6]; 480 mg): 2 (33.3) | Gastrointestinal disorders Diarrhoea ([6]; 480 mg): 1 (16.7) | Gastrointestinal disorders Nausea ([6]; 480 mg): 1 (16.7) | Gastrointestinal disorders Vomiting ([6]; 480 mg): 1 (16.7) | Nervous systems disorders Headache ([6]; 480 mg): 0 (0.0) | study drug related treatment emergent adverse events (TEAE), NHV vs T2DM subjects ([6]; single dose): observed in the NHV but not the T2DM subjects | tolerability [6]: well tolerated | tolerability ([6]; listed as Formula IIIa): well tolerated and considered safe up to the highest dose tested | 1st-order kinetic rate constant ([7]; Mouse liver microsomes, 60 minutes at 37 C): 0.0017 min⁻¹ | Predicted systemic clearance ([7]; Mouse, from liver microsomes): 7.05 mL/min/kg body weight
